Legend:
mice = settings: orally administered; cited from earlier work
[1] = test system: mice injected with 5-Hydroxytryptamine (a nociceptive agent); settings: orally administered; cited from earlier work
[2] = test system: free range broiler chickens; experiment: dimethylheptylpyran capsules orally administered to free range broiler chickens; format: in vivo; settings: 1 μg in cod liver oil capsules, twice-daily oral
Experimental: In a final embodiment of the present invention, soft gel capsules containing 1 μg of dimethylheptylpyran dissolved in cod liver oil are twice-daily orally administered to free range broiler chickens. Dimethylheptylpyran is an extremely potent cannabinoid receptor agonist.

humans [3] = experiment: lowest observed effect level (LOEL) for psychoactive effects in humans; format: in vivo; settings: orally administered
Experimental: Contrasting their extremely low toxicity, cannabinoids generally have very low effective doses. […] In humans, the lowest observed effect level (LOEL) for psychoactive effects induced by orally administered Δ^9-THC is 0.04 mg/kg, or 3.2 mg for the average 80 kg adult human. As a result, the therapeutic indices (LD50/ED50) of most cannabinoids are astoundingly high. It would be extremely difficult, if not impossible, for a human or animal to suffer permanent damage due to an intake of cannabinoids, absent a targeted effort to cause such damage.

[4] = accumulation of Δ^9-THC in milk of dairy water buffalo grazing Cannabis indica Himalaya Gold; format: in vivo; settings: roughly 400 g Δ^9-THC orally per day, 20 L milk per day
Source text: In a second embodiment of the present invention, dairy water buffalo are grazed in a pasture cultivated for their consumption which contains cereals, legumes, and Cannabis indica “Himalaya Gold” (a hardy, outdoor cultivar of Cannabis). The approximate Δ^9-THC, CBN, and CBD levels of the Himalaya Gold Cannabis cultivar are 10.0%, 1.0%, and 0.3%, respectively. The animals are left to graze according to their preference, and all three types of plants are consumed in significant quantity. Particularly, the water buffalo consume about 32 kg of raw plant material per day, of which an average of 4 kg is Cannabis. Thus, roughly 400 g of Δ^9-THC is orally administered to the animals each day.
The cannabinoids present in the Himalaya Gold Cannabis induce physiological effects which affect the composition of the water buffalo's milk. More specifically, several fat-soluble cannabinoids, including Δ^9-THC and 11-Hydroxy-Δ^9-tetrahydrocannabinol (11-OH-Δ^9-THC; an active metabolite of Δ^9-THC), accumulate in the milk during lactogenesis. The cannabinoid-containing raw milk is then harvested from the water buffalo by use of a rotary parlor milking station. […]

humans [5] = settings: orally administered; cited from earlier work
[6] = accumulation of Δ^9-THC in adipose tissue of finishing hogs given Cannabis tincture in water; settings: 100 mg Δ^9-THC orally each day

Q: For C=C(C)[C@@H]1CCC(C)=C[C@H]1c1c(O)cc(CCCCC)cc1O [CBD, cannabidiol], which “median lethal dose (LD50)” value (mice) is on record?
A: 13,500 mg/kg

Q: For CCCCCc1cc(O)c2c(c1)OC(C)(C)c1ccc(C)cc1-2 [CBN, cannabinol], which “median effective dose (ED50) for antinociception” value [1] is on record?
A: 46.2 mg/kg

Q: And the “median lethal dose (LD50)” value (mice)?
A: 12,700 mg/kg

Q: For CCCCCC(C)C(C)c1cc(O)c2c(c1)OC(C)(C)C1=C2CC(C)CC1 (stereo not shown) [dimethylheptylpyran], which calming effect [2] is on record?
A: significantly calms the chickens

Q: What about the “effect on aggressive behavior” value [2] of the same compound?
A: inhibits aggressive behavior

Q: Which “median lethal dose (LD50)” value (mice) does the source give for [Cl-].[Na+] [sodium chloride] here?
A: 4,000 mg/kg

Q: Which “LOEL for psychoactive effects, for the average 80 kg adult human” value (humans [3]) does the source give for CCCCCc1cc(O)c2c(c1)OC(C)(C)[C@@H]1CCC(C)=C[C@@H]21 [Δ^9-THC, delta-9-tetrahydrocannabinol] here?
A: 3.2 mg

Q: And the “average transfer rate into milk” value [4]?
A: 0.15%

Q: What about the “Δ^9-THC content of milk” value [4] of the same compound?
A: around 30 mg per L

Q: And the “median effective dose (ED50) for antinociception” value [1]?
A: 1.0 mg/kg

Q: And the “lowest observed effect level (LOEL) for psychoactive effects” value (humans [5])?
A: 0.04 mg/kg

Q: What about the “median lethal dose (LD50)” value (mice) of the same compound?
A: 21,600 mg/kg

Q: And the “average storage rate in adipose tissue” value [6]?
A: 0.1%

Source: patent publication US20130280343A1, “Food Products Derived From Cannabinoid-Administered Livestock” (priority 2012, published 2013)
